Earlier results as cited in patent US8703823B2, “Methods for treatment of migraine and symptoms thereof” (priority 2004, dated 2014).

How the values were obtained:
[1] = in vivo
[2] = individuals treated with trimethobenzamide for uncontrolled vomiting

Row | SMILES | Migraine prevention / antimigraine effect [1] | Occurrence of adverse diskinesia side effects [2] [%]
1 | CCN(CC)CCNC(=O)c1cc(Cl)c(N)cc1OC [Metoclopramide, metoclopramide] | exerted an antimigraine effect | 
2 | COc1cc(N)c(Cl)cc1C(=O)NC1CCN(CCCOc2ccc(F)cc2)CC1OC (stereo not drawn) [cisapride] | ineffective | 
3 | COc1cc(C(=O)NCc2ccc(OCCN(C)C)cc2)cc(OC)c1OC.Cl [trimethobenzamide, N-[p-[2-(dimethylamino)ethoxy]benzyl]-3,4,5-trimethoxybenzamide monohydrochloride] |  | < 2
